In ChEMBL document CHEMBL3885861, “Open TG-GATES”:

Organism: Rattus norvegicus
Test: Open TG-GATES - Regimen: Single
Type: toxicity, organism-based, Sprague-Dawley
Set-up: regimen Single, gender Male, age 6 weeks
Conditions: in vivo, po, 100 mg/kg, route gavage, dose level Low; for APTT / Bas / Eos / Fbg / Hb / Ht / Lym / MCH / MCHC / MCV / Mono / Neu / PT / Plat / RBC / Ret / WBC: tissue Blood; for KIDNEY_L / KIDNEY_R / KIDNEY_TOTAL: tissue Kidney; for LIVER: tissue Liver; for A/G / ALP / ALT / AST / BUN / CRE / Ca / Cl / DBIL / GLC / IP / K / LDH / Na / PL / RALB / TBIL / TC / TG / TP / gamma-GTP: tissue Plasma

Structure (SMILES): CCC1(c2ccccc2)C(=O)NC(=O)NC1=O [PHENOBARBITAL]
- TERMINAL_BW (3 h): 225.5 g
- APTT (3 h): 20.6 s
- Bas (3 h): 0%
- Eos (3 h): 1%
- Fbg (3 h): 220.6 mg/dL
- Hb (3 h): 13.7 g/dL
- Ht (3 h): 37.8%
- Lym (3 h): 76.6%
- MCH (3 h): 22.2 pg
- MCHC (3 h): 36.1%
- MCV (3 h): 61.3 fL
- Mono (3 h): 3.4%
- Neu (3 h): 18.2%
- PT (3 h): 12 s
- Plat (3 h): 126.2 x10_4/uL
- RBC (3 h): 616.6 x10_4/ul
- Ret (3 h): 7.8%
- WBC (3 h): 85.2 x10_2/uL
- KIDNEY_L (3 h): 1 g
- KIDNEY_R (3 h): 1 g
- KIDNEY_TOTAL (3 h): 2.1 g
- LIVER (3 h): 10.1 g
- A/G (3 h): 1.6
- ALP (3 h): 991 IU/L
- ALT (3 h): 33.4 IU/L
- AST (3 h): 67.4 IU/L
- BUN (3 h): 8.4 mg/dL
- CRE (3 h): 0.3 mg/dL
- Ca (3 h): 10.7 mg/dL
- Cl (3 h): 101.4 meq/L
- DBIL (3 h): 0.064 mg/dL
- GLC (3 h): 179.4 mg/dL
- IP (3 h): 9.7 mg/dL
- K (3 h): 4.4 meq/L
- LDH (3 h): 168.4 IU/L
- Na (3 h): 139.8 meq/L
- PL (3 h): 156.6 mg/dL
- RALB (3 h): 3.3 g/dL
- TBIL (3 h): 0.1 mg/dL
- TC (3 h): 83.4 mg/dL
- TG (3 h): 83.8 mg/dL
- TP (3 h): 5.3 g/dL
- gamma-GTP (3 h): 1 IU/L
- TERMINAL_BW (6 h): 222.4 g
- APTT (6 h): 18 s
- Bas (6 h): 0.2%
- Eos (6 h): 0.8%
- Fbg (6 h): 237.8 mg/dL
- Hb (6 h): 13.7 g/dL
- Ht (6 h): 37.9%
- Lym (6 h): 79.8%
- MCH (6 h): 21.4 pg
- MCHC (6 h): 36.2%
- MCV (6 h): 59 fL
- Mono (6 h): 3.4%
- Neu (6 h): 15%
- PT (6 h): 11.8 s
- Plat (6 h): 124.2 x10_4/uL
- RBC (6 h): 643 x10_4/ul
- Ret (6 h): 8.1%
- WBC (6 h): 90.7 x10_2/uL
- KIDNEY_L (6 h): 1 g
- KIDNEY_R (6 h): 0.9 g
- KIDNEY_TOTAL (6 h): 1.9 g
- LIVER (6 h): 9.4 g
- A/G (6 h): 1.6
- ALP (6 h): 1012 IU/L
- ALT (6 h): 31.8 IU/L
- AST (6 h): 64.8 IU/L
- BUN (6 h): 7.6 mg/dL
- CRE (6 h): 0.4 mg/dL
- Ca (6 h): 10.7 mg/dL
- Cl (6 h): 100.4 meq/L
- DBIL (6 h): 0.074 mg/dL
- GLC (6 h): 191.8 mg/dL
- IP (6 h): 10.1 mg/dL
- K (6 h): 3.9 meq/L
- LDH (6 h): 173.2 IU/L
- Na (6 h): 139.6 meq/L
- PL (6 h): 138.8 mg/dL
- RALB (6 h): 3.3 g/dL
- TBIL (6 h): 0.1 mg/dL
- TC (6 h): 71 mg/dL
- TG (6 h): 68.8 mg/dL
- TP (6 h): 5.5 g/dL
- gamma-GTP (6 h): 0.8 IU/L
- TERMINAL_BW (9 h): 220.3 g
- APTT (9 h): 19.6 s
- Bas (9 h): 0.4%
- Eos (9 h): 0.8%
- Fbg (9 h): 215.6 mg/dL
- Hb (9 h): 13.8 g/dL
- Ht (9 h): 38.2%
- Lym (9 h): 74.6%
- MCH (9 h): 21.6 pg
- MCHC (9 h): 36.2%
- MCV (9 h): 59.6 fL
- Mono (9 h): 2.6%
- Neu (9 h): 20.6%
- PT (9 h): 12.4 s
- Plat (9 h): 124.9 x10_4/uL
- RBC (9 h): 640.6 x10_4/ul
- Ret (9 h): 7.4%
- WBC (9 h): 90 x10_2/uL
- KIDNEY_L (9 h): 1 g
- KIDNEY_R (9 h): 1 g
- KIDNEY_TOTAL (9 h): 1.9 g
- LIVER (9 h): 9.2 g
- A/G (9 h): 1.6
- ALP (9 h): 848.2 IU/L
- ALT (9 h): 25.2 IU/L
- AST (9 h): 60.4 IU/L
- BUN (9 h): 10.4 mg/dL
- CRE (9 h): 0.3 mg/dL
- Ca (9 h): 10.4 mg/dL
- Cl (9 h): 101 meq/L
- DBIL (9 h): 0.064 mg/dL
- GLC (9 h): 196.4 mg/dL
- IP (9 h): 8.7 mg/dL
- K (9 h): 3.9 meq/L
- LDH (9 h): 154.4 IU/L
- Na (9 h): 140.4 meq/L
- PL (9 h): 129.8 mg/dL
- RALB (9 h): 3.4 g/dL
- TBIL (9 h): 0.1 mg/dL
- TC (9 h): 64.4 mg/dL
- TG (9 h): 55.6 mg/dL
- TP (9 h): 5.5 g/dL
- gamma-GTP (9 h): 0.6 IU/L
- TERMINAL_BW (24 h): 234.5 g
- APTT (24 h): 21 s
- Bas (24 h): 0.8%
- Eos (24 h): 1%
- Fbg (24 h): 217.8 mg/dL
- Hb (24 h): 13.5 g/dL
- Ht (24 h): 37.2%
- Lym (24 h): 77.8%
- MCH (24 h): 22.2 pg
- MCHC (24 h): 36.2%
- MCV (24 h): 61.3 fL
- Mono (24 h): 2.6%
- Neu (24 h): 17.8%
- PT (24 h): 11.8 s
- Plat (24 h): 122.9 x10_4/uL
- RBC (24 h): 607.6 x10_4/ul
- Ret (24 h): 6.6%
- WBC (24 h): 114.9 x10_2/uL
- KIDNEY_L (24 h): 1.1 g
- KIDNEY_R (24 h): 1.1 g
- KIDNEY_TOTAL (24 h): 2.3 g
- LIVER (24 h): 12 g
- A/G (24 h): 1.6
- ALP (24 h): 1006.8 IU/L
- ALT (24 h): 39 IU/L
- AST (24 h): 70.6 IU/L
- BUN (24 h): 14.4 mg/dL
- CRE (24 h): 0.4 mg/dL
- Ca (24 h): 10.8 mg/dL
- Cl (24 h): 102.4 meq/L
- DBIL (24 h): 0.062 mg/dL
- GLC (24 h): 183.4 mg/dL
- IP (24 h): 7.3 mg/dL
- K (24 h): 3.8 meq/L
- LDH (24 h): 181.4 IU/L
- Na (24 h): 142 meq/L
- PL (24 h): 132.6 mg/dL
- RALB (24 h): 3.4 g/dL
- TBIL (24 h): 0.1 mg/dL
- TC (24 h): 64 mg/dL
- TG (24 h): 105.4 mg/dL
- TP (24 h): 5.6 g/dL
- gamma-GTP (24 h): 0.8 IU/L
